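1) Cells in 96-well plates. 2) Compound, 48 h, 5 concentrations. 3) Linear interpolation between surrounding doses. 4) Unreached endpoint = highest concentration. Here, GI50 denotes the concentration required for 50% inhibition of growth.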 Active and inactive are the calls of the source. Cut-off read from the data, not from the text of the source: active = GI50 up to about 1.1 µM and inactive = higher.
How the values were obtained:
Test in all cases: DTP human tumour cell line panel, 48 h
SNB-75 = test system: SNB-75
NCI-H23 = test system: NCI-H23
OVCAR-8 = test system: OVCAR-8
SK-MEL-28 = test system: SK-MEL-28
SF-268 = test system: SF-268
CAKI-1 = test system: CAKI-1
HOP-62 = test system: HOP-62
HL-60 = test system: HL-60
HCT-116 = test system: HCT-116
HCC 2998 = test system: HCC 2998
Malme-3M = test system: Malme-3M
SF-295 = test system: SF-295
RXF 393 = test system: RXF 393
NCI-H522 = test system: NCI-H522
UACC-257 = test system: UACC-257
SR = test system: SR

Measured: GI50

COc1ccc(C(=O)O/N=C2\CCCC\C2=C/c2ccccc2)cc1
inactive: SNB-75 28.4 µM | NCI-H23 15.4 µM | OVCAR-8 > 100 µM | SK-MEL-28 > 100 µM | SF-268 67.1 µM | CAKI-1 81.5 µM | HOP-62 45.3 µM | HL-60 > 100 µM | HCT-116 > 100 µM | HCC 2998 > 100 µM

CC(C)NC(C)C(C)c1ccccc1 (configuration not stated)
inactive: SNB-75 > 100 µM | NCI-H23 > 100 µM | OVCAR-8 > 100 µM | Malme-3M > 100 µM | SK-MEL-28 > 100 µM | SF-268 > 100 µM | CAKI-1 > 100 µM | SF-295 > 100 µM | HOP-62 > 100 µM | RXF 393 > 100 µM | HCT-116 > 100 µM | NCI-H522 > 100 µM | HCC 2998 > 100 µM | UACC-257 > 100 µM

Cc1ccc(C2=NO[C@@H]3C(=O)N(c4ccc(Cc5ccc(N6C(=O)[C@H]7C(c8ccc(C)cc8)=NO[C@H]7C6=O)cc5)cc4)C(=O)[C@H]23)cc1
inactive: SNB-75 79.4 µM | NCI-H23 > 100 µM | OVCAR-8 > 100 µM | Malme-3M > 100 µM | SK-MEL-28 > 100 µM | SF-268 > 100 µM | CAKI-1 > 100 µM | SF-295 > 100 µM | HOP-62 > 100 µM | HL-60 > 100 µM | RXF 393 > 100 µM | HCC 2998 > 100 µM | UACC-257 38.7 µM

Cc1ccccc1Cn1nc2ccccc2cc1=O
inactive: SNB-75 22.1 µM | NCI-H23 > 100 µM | OVCAR-8 > 100 µM | Malme-3M > 100 µM | SK-MEL-28 > 100 µM | SF-268 > 100 µM | CAKI-1 > 100 µM | SF-295 > 100 µM | HOP-62 > 100 µM | HCT-116 > 100 µM | HCC 2998 > 100 µM | UACC-257 > 100 µM

Cc1cccc(C)c1N1C(=O)C(=O)C(c2nc3ccccc3s2)/C(=N\N)C1=O (configuration not stated)
inactive: SNB-75 > 100 µM | NCI-H23 > 100 µM | OVCAR-8 > 100 µM | Malme-3M > 100 µM | SK-MEL-28 > 100 µM | SF-268 > 100 µM | CAKI-1 > 100 µM | SF-295 > 100 µM | HOP-62 > 100 µM | HL-60 36.3 µM | HCT-116 > 100 µM | NCI-H522 39.4 µM | HCC 2998 > 100 µM | UACC-257 > 100 µM

CC(C)C(=O)N[C@@H](C)C(=O)N(Cc1ccc2ccccc2c1)N=O
inactive: SNB-75 > 100 µM | OVCAR-8 > 100 µM | Malme-3M > 100 µM | SK-MEL-28 > 100 µM | SF-268 > 100 µM | CAKI-1 40.5 µM | SF-295 48.6 µM | HOP-62 > 100 µM | HCT-116 68.9 µM | HCC 2998 > 100 µM | UACC-257 > 100 µM

COC(=O)C(Cc1nc2ccc(Cl)cc2nc1O)/C(=N\N)C(=O)Nc1cc(C)c(Cl)cc1S(=O)(=O)O (configuration not stated)
inactive: NCI-H23 > 100 µM | OVCAR-8 > 100 µM | SR 99.8 µM | Malme-3M > 100 µM | SK-MEL-28 > 100 µM | SF-268 > 100 µM | CAKI-1 > 100 µM | SF-295 > 100 µM | HOP-62 > 100 µM | HCT-116 > 100 µM | NCI-H522 90.6 µM | HCC 2998 > 100 µM | UACC-257 > 100 µM

CC(C)=CC(=O)CC(=O)C(=O)NCCNC(=O)C(=O)CC(=O)C=C(C)C
inactive: SNB-75 > 50 µM | NCI-H23 > 50 µM | OVCAR-8 > 50 µM | Malme-3M > 50 µM | SK-MEL-28 > 50 µM | SF-268 > 50 µM | CAKI-1 > 50 µM | SF-295 > 50 µM | HOP-62 > 50 µM | RXF 393 > 50 µM | HCT-116 > 50 µM | HCC 2998 > 50 µM | UACC-257 > 50 µM

COC1[C@H](NC(=O)OC(C)(C)C)C(=O)N1Cc1ccccc1 (some centres not stated)
inactive: SNB-75 > 100 µM | NCI-H23 > 100 µM | OVCAR-8 > 100 µM | Malme-3M > 100 µM | SK-MEL-28 > 100 µM | SF-268 > 100 µM | SF-295 > 100 µM | HOP-62 > 100 µM | HL-60 > 100 µM | RXF 393 > 100 µM | HCT-116 > 100 µM | HCC 2998 > 100 µM | UACC-257 > 100 µM

O=C1C=C2CCCC2C(C(=O)O)(C(=O)O)C1 (configuration not stated)
inactive: SNB-75 > 100 µM | NCI-H23 > 100 µM | OVCAR-8 > 100 µM | Malme-3M > 100 µM | SK-MEL-28 > 100 µM | SF-268 > 100 µM | CAKI-1 > 100 µM | SF-295 > 100 µM | HOP-62 > 100 µM | HL-60 > 100 µM | RXF 393 > 100 µM | HCT-116 > 100 µM | NCI-H522 > 100 µM | HCC 2998 > 100 µM | UACC-257 > 100 µM

C#Cc1ccccc1N1C(=O)C=CC1=O
inactive: SNB-75 > 100 µM | NCI-H23 > 100 µM | OVCAR-8 > 100 µM | SR > 100 µM | Malme-3M > 100 µM | SK-MEL-28 > 100 µM | SF-268 > 100 µM | CAKI-1 > 100 µM | SF-295 > 100 µM | HOP-62 > 100 µM | HL-60 > 100 µM | HCT-116 > 100 µM | NCI-H522 > 100 µM | UACC-257 > 100 µM

— ChEMBL document CHEMBL1201862, “PubChem BioAssay data set” (2004)
